# Legend:
# CDK2/cyclinA = biological target: T1, CDK2/cyclinA (Homo sapiens, UniProt P24941); experiment: CDK2 kinase assay (33P-ATP, Histone H1 substrate); assay type: biochemical; settings: 1 μM ATP, 5 μM Histon H1, 2 hours at room temperature
# T1 construct: C-terminal 6His-tagged human full length cdk2 (MW=35 kDa); 6His (C); made in house; host or cells: Sf21 insect cells (baculovirus)
# From the text: CDK2/cyclinA (Accession number for CDK2; EMBL M68520, for cyclin A; EMBL X51688): C-terminal 6His-tagged human full length cdk2 (MW=35 kDa), and N-terminal GST-tagged human full length cyclin A (MW=75 kDa) were expressed individually with baculovirus system in Sf21 insect cells. Recombinant cdk2 protein was purified with Ni2+/NTA agarose and then activated using CAK and repurified by Q Sepharose and Ni2+/NTA agarose. Recombinant cyclin A was purified using glutathione-agarose. They were then mixed in vitro to form protein complex. Recombinant protein complex was measured to be 67% in purity with SDS-PAGE and Coomassie blue staining. Specific activity of purified enzyme was measured to be 158 U/mg, where one unit of cdk2/cyclinA activity is defined as 1 nmol phosphate incorporated into 0.1 mg/ml histone H1 per minute at 30° C. with a final ATP concentration of […]. Enzyme was stored at a concentration of 0.1 mg/ml in 50 mM Tris/HCl pH7.5, 150 mM NaCl, 0.1 mM EGTA, 0.03% Brij-35, 270 mM sucrose, 1 mM benzamidine, 0.2 mM PMSF, 0.1% 2-mercaptoethanol. Frozen solution.
# Histon H1 (Substrate for CDK2): Histone H1 (Sigma cat#H4524), was purified as a lysine rich fraction from calf thymus with 93% purity (MW=21.5 kDa). Purified protein was stored at a concentration of 20 mg/ml=930 μM in distilled water.
# […] (0.5 nmol) and 5 μM Histon H1 were mixed in the reaction buffer (20 mM HEPES (pH 7.5), 10 mM MgCl2, 1 mM EGTA, 0.02% Brij 35, 0.02 mg/ml BSA, 0.1 mM Na3VO4, 2 mM DTT) with final concentration of 1 μM ATP and 1% DMSO. The reaction was incubated for 2 hours at room temperature and conversion rate of ATP is about 4.5%. An equal volume of 25% TCA was added to stop the reaction and precipitate the labeled peptides. Precipitated proteins were trapped onto glass fiber B filterplates and excess […] p33 ATP was washed off. The plates were allowed to air-dry prior to the addition of 30 uL/well of Packard Microscint 20. The amount of incorporated isotope was measured using a Perkin Elmer TopCount plate reader. Different concentrations of compounds were added to reaction to assess the activity of compounds to inhibit […]. IC50 was calculated using Prism software with sigmoidal dose-response curve fitting.
# The following TABLE B lists compounds representative of the invention and their activity in the CDK2 assay. In this assay, the following grading was used: I≧10 μM, 10 μM>II>1 μM, 1 μM>III>0.1 μM, and IV≦0.1 μM for IC50.
# CDK1 = CDK1 (Homo sapiens, UniProt P06493); experiment: CDK1 kinase inhibition (Table B); assay type: biochemical
# CDK3 = CDK3 (Homo sapiens, UniProt Q00526); experiment: CDK3 kinase inhibition (Table B); assay type: biochemical
# CDK4 = CDK4 (Homo sapiens, UniProt P11802); experiment: CDK4 kinase inhibition (Table B); assay type: biochemical
# CDK9 = CDK9 (Homo sapiens, UniProt P50750); experiment: CDK9 kinase inhibition (Table B); assay type: biochemical
# Sequence of CDK9 (P50750 whole entry): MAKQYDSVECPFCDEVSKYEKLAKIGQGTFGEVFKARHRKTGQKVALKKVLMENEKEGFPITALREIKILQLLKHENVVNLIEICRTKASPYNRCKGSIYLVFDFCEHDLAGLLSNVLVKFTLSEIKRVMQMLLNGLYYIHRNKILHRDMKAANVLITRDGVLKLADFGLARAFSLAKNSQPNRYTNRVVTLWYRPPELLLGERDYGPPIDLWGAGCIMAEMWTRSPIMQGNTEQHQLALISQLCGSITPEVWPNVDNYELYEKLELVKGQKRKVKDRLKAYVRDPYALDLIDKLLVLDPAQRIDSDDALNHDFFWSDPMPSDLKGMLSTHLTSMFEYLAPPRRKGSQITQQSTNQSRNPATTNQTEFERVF
# Sequence of CDK9 (O60563 whole entry partner): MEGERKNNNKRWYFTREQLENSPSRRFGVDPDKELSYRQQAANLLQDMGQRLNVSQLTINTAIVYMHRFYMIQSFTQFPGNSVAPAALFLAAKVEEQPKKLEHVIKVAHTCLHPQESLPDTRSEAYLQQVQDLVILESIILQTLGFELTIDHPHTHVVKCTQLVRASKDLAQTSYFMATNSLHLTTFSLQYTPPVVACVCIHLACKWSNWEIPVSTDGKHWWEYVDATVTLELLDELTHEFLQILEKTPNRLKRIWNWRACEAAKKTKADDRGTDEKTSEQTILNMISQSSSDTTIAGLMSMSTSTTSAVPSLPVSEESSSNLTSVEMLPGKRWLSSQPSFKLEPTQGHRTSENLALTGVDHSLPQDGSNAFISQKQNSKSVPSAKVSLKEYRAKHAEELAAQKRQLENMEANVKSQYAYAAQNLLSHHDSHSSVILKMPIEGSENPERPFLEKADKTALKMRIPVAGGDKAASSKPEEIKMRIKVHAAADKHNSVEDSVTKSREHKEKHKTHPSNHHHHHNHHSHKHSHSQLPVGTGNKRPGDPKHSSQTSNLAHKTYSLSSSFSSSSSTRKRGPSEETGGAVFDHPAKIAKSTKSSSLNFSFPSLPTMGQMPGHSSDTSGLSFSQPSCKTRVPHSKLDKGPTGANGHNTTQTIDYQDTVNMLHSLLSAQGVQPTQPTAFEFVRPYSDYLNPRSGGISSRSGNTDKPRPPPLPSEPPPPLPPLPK
# Sequence of CDK3 (Q00526 whole entry): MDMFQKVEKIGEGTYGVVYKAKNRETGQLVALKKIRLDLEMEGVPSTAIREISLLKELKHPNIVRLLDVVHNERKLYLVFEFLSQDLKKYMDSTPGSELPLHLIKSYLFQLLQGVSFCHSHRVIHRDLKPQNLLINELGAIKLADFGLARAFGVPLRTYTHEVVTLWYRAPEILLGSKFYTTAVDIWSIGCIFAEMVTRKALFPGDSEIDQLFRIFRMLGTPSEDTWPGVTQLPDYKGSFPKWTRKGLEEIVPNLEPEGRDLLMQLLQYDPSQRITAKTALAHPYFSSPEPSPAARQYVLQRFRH
# Sequence of CDK3 (P24864 whole entry partner): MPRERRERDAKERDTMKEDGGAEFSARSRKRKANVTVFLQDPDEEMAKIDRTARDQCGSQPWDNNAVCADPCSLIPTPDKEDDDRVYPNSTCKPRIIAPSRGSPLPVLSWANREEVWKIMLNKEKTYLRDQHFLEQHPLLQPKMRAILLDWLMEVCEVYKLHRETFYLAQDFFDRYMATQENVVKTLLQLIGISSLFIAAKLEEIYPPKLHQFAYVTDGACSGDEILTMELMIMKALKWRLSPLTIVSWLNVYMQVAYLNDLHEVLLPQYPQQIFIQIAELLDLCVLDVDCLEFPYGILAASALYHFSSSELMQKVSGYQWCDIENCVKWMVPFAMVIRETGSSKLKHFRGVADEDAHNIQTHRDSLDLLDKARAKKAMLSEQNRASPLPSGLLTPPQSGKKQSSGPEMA
# Sequence of CDK1 (P06493 whole entry): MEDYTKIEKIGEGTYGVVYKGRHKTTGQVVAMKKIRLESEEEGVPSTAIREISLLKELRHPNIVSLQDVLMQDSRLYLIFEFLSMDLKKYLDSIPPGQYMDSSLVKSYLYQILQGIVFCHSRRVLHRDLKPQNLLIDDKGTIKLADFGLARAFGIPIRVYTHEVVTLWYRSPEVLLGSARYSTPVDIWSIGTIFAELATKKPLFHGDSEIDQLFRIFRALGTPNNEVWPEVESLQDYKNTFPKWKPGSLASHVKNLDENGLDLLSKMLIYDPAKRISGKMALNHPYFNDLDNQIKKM
# Sequence of CDK1 (P14635 whole entry partner): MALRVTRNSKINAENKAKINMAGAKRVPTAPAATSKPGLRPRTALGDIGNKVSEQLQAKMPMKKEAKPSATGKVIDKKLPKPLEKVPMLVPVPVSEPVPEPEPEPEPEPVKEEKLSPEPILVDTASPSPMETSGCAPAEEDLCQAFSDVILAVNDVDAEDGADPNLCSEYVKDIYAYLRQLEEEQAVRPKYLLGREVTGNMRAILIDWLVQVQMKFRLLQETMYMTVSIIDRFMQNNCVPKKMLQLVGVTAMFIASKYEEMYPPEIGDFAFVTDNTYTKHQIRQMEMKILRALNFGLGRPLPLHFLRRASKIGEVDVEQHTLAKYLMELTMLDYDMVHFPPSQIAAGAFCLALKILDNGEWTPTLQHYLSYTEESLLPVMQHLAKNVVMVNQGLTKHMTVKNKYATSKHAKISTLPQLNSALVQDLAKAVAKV
# Sequence of CDK4 (P11802 whole entry): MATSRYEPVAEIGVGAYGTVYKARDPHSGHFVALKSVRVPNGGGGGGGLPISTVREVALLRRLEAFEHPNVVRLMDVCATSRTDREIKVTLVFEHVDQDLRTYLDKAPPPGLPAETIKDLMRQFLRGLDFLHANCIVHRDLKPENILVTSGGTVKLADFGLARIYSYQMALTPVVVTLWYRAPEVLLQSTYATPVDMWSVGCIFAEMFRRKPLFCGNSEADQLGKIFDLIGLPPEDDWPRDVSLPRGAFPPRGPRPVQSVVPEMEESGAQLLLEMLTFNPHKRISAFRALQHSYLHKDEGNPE
# Sequence of CDK4 (P24385 whole entry partner): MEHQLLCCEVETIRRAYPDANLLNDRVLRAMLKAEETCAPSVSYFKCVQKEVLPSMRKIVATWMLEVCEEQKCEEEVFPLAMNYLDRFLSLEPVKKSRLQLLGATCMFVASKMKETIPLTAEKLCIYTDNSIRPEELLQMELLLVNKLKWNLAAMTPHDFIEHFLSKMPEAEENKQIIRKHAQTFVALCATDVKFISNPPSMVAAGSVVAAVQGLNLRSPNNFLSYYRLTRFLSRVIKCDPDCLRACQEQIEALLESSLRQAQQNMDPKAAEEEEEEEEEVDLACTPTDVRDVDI
IC50 (CDK2/cyclinA) [nM],IC50 (CDK1) [nM],IC50 (CDK3) [nM],IC50 (CDK4) [nM],IC50 (CDK9) [nM],melting point [°C],Compound
≤ 100,≤ 100,≤ 100,100 to 1000,≤ 100,–,"CC(C)N(O)C(=O)CCCCCCC(=O)Nc1ncc(SCc2ncc(C(C)(C)C)o2)s1 [Compound 5, N^1-(5-((5-tert-butyloxazol-2-yl)methylthio)thiazol-2-yl)-N^8-hydroxy-N^8-isopropyloctanediamide]"
≤ 100,–,–,–,–,77 to 82,"CC(C)(C)c1cnc(CSc2cnc(NC(=O)CCCCCCC(=O)Nc3cc(C(F)(F)F)ccc3N)s2)o1 [Compound 24, N^1-(2-amino-5-(trifluoromethyl)phenyl)-N^8-(5-((5-tert-butyloxazol-2-yl)methylthio)thiazol-2-yl)octanediamide]"
≤ 100,≤ 100,≤ 100,100 to 1000,≤ 100,–,"CC(C)(C)c1cnc(CSc2cnc(NC(=O)CCCCCCC(=O)Nc3ccccc3N)s2)o1 [Compound 18, N^1-(2-aminophenyl)-N^8-(5-((5-tert-butyloxazol-2-yl)methylthio)thiazol-2-yl)octanediamide]"
≤ 100,–,–,–,–,114 to 116,"CC(C)(C)c1cnc(CSc2cnc(NC(=O)CCCCCCC(=O)Nc3ccc(C(F)(F)F)cc3N)s2)o1 [Compound 25, N^1-(2-amino-4-(trifluoromethyl)phenyl)-N^8-(5-((5-tert-butyloxazol-2-yl)methylthio)thiazol-2-yl)octanediamide]"
≤ 100,–,–,–,–,126 to 129,"CC(C)(C)c1cnc(CSc2cnc(NC(=O)Cc3ccc(OCCCC(=O)Nc4ccccn4)cc3)s2)o1 [Compound 64, 4-(4-(2-(5-((5-tert-butyloxazol-2-yl)methylthio)thiazol-2-ylamino)-2-oxoethyl)phenoxy)-N-(pyridin-2-yl)butanamide]"
≤ 100,–,–,–,–,–,"CC(C)(C)c1cnc(CSc2cnc(NC(=O)CCCCCCC(=O)NOCc3ccccc3)s2)o1 [Compound 2, N^1-(benzyloxy)-N^8-(5-((5-tert-butyloxazol-2-yl)methylthio)thiazol-2-yl)octanediamide]"
≤ 100,–,–,–,–,–,"CN(O)C(=O)CCCCCCC(=O)Nc1ncc(SCc2ncc(C(C)(C)C)o2)s1 [Compound 4, N^1-(5-((5-tert-butyloxazol-2-yl)methylthio)thiazol-2-yl)-N^8-hydroxy-N^8-methyloctanediamide]"
≤ 100,–,–,–,–,–,"CC(C(=O)Nc1ncc(SCc2ncc(C(C)(C)C)o2)s1)c1ccc(OCCCC(=O)Nc2ccccc2N)cc1 (stereo not drawn) [Compound 57, N-(2-aminophenyl)-4-(4-(1-(5-((5-tert-butyloxazol-2-yl)methylthio)thiazol-2-ylamino)-1-oxopropan-2-yl)phenoxy)butanamide]"
≤ 100,–,–,–,–,–,"CC(C)(C)c1cnc(CSc2cnc(NC(=O)CCCCCCC(=O)Nc3ccc(N)cc3)s2)o1 [Compound 21, N^1-(4-aminophenyl)-N^8-(5-((5-tert-butyloxazol-2-yl)methylthio)thiazol-2-yl)octanediamide]"
≤ 100,–,–,–,–,–,"CC(C)(C)c1cnc(CSc2cnc(NC(=O)CCCCCC(=O)Nc3ccccc3N)s2)o1 [Compound 17, N1-(2-aminophenyl)-N7-(5-((5-tert-butyloxazol-2-yl)methylthio)thiazol-2-yl)heptanediamide]"

# From patent US8691820B2, “CDK inhibitors” (Curis, Inc., priority 2008, dated 2014)
